From ChEMBL document CHEMBL5465560, “Selectivity Literature for EUbOPEN Chemogenomic Library” (2024) come the findings set out here.

The target of assay [1] is T1, Inhibitor of nuclear factor kappa-B kinase subunit epsilon (Homo sapiens) (UniProt Q14164).
T1 sequence (whole entry): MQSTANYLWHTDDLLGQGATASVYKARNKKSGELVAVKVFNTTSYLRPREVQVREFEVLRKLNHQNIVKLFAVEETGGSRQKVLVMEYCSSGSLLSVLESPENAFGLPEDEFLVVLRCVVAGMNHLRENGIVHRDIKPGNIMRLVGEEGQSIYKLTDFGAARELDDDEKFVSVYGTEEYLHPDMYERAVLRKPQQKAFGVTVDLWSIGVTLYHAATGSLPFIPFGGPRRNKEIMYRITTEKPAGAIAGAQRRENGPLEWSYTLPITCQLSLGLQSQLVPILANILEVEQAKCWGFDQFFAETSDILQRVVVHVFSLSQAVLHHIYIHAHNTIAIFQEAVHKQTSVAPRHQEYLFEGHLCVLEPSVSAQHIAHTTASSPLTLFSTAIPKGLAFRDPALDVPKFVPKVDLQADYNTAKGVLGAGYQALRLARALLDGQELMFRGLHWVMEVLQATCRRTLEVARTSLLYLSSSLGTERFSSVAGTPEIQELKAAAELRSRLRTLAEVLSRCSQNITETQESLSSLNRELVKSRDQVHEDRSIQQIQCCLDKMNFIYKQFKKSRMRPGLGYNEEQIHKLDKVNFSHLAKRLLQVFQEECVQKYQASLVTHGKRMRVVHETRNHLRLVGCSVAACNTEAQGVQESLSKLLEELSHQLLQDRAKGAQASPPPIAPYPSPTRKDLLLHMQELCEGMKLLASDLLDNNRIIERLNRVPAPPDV
Description: Selectivity interaction (KinomeScan (DiscoverX)) EUB0000595a IKBKE. Particulars: at 10 µM.

Assay [2] deals with Mitogen-activated protein kinase 6 (Homo sapiens) (UniProt Q16659). The assay is described as follows: Selectivity interaction (KinomeScan (DiscoverX)) EUB0000595a MAPK6. Conditions: at 10 µM.
Assay [3] has as its target PAS domain-containing serine/threonine-protein kinase (Homo sapiens) (UniProt Q96RG2). The assay is described as follows: Selectivity interaction (Kinase screening (Nanosyn)) EUB0000604a PASK.
The target of another assay is Aurora kinase B (Homo sapiens, UniProt Q96GD4). Description: Selectivity interaction (Kinase panel (Invitrogen)) EUB0000639a AURKB. Conditions: at 200 nM.
Assay [4] has as its target Ribosomal protein S6 kinase alpha-3 (Homo sapiens, UniProt P51812). The assay is described as follows: Selectivity interaction (ActivX KiNativ screen (kinase selectivity in THP-1 cell lysates)) EUB0000639a RPS6KA3. Type of assay: subcellular. Particulars: lysate, at 5 µM.
Assay [5] concerns the target T2, Phosphatidylinositol 4,5-bisphosphate 3-kinase catalytic subunit delta isoform (Homo sapiens) (UniProt O00329).
T2 sequence (whole entry): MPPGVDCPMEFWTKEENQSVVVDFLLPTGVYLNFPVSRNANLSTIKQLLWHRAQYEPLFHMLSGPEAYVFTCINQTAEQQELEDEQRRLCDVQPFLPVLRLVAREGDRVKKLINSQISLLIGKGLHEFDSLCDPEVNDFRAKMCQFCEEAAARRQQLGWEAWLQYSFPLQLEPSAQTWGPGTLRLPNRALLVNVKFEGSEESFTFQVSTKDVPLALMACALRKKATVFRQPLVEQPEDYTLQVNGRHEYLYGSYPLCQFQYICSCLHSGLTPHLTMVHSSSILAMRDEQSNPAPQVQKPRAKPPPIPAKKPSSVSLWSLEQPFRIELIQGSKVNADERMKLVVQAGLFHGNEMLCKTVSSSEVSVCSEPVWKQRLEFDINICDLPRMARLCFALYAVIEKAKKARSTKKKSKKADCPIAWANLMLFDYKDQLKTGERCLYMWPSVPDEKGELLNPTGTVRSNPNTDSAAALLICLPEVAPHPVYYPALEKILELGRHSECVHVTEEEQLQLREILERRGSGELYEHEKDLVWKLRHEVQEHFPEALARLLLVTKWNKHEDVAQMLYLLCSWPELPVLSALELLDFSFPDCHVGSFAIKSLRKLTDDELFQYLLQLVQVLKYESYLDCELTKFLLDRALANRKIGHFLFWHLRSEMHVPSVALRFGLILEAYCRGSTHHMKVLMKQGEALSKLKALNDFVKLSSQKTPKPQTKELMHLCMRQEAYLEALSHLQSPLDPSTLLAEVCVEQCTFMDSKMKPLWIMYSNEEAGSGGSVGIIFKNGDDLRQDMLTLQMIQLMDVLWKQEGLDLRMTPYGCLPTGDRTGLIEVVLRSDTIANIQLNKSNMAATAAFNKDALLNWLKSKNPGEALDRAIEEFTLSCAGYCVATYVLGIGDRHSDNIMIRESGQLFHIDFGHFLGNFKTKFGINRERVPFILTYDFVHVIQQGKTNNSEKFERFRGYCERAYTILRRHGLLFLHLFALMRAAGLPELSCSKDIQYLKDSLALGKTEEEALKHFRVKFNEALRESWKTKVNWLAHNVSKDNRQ
The assay is described as follows: Selectivity interaction (KinomeScan (DiscoverX)) EUB0000618a PIK3CD. Conditions: at 10 µM.

For assay [6], the target named is T3, Serine/threonine-protein kinase DCLK1 (Homo sapiens) (UniProt O15075).
T3 sequence (whole entry): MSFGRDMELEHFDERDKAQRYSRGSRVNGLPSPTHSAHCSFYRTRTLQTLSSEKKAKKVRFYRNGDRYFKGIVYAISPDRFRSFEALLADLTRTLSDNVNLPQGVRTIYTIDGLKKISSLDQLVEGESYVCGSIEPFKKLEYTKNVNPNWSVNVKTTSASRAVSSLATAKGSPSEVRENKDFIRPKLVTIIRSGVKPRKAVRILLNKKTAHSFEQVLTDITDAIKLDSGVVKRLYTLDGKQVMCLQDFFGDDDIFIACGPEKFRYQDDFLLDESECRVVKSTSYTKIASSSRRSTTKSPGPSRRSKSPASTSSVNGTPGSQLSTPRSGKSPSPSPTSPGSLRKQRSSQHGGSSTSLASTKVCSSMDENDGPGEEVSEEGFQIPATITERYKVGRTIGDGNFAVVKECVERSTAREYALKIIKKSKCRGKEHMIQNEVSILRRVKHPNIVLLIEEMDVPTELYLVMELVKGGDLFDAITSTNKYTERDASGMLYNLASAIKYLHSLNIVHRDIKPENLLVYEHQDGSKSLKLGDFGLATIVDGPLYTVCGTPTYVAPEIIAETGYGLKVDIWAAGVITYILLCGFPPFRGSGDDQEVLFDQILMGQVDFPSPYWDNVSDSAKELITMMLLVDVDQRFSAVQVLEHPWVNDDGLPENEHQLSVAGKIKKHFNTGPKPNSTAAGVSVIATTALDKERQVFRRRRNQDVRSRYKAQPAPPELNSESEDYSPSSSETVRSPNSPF
The assay is described as follows: Selectivity interaction (Kinase panel (DSF assay)) EUB0001558a DCLK1.

Assay [7] concerns the target Ephrin type-A receptor 5 (Homo sapiens) (UniProt P54756). Description: Selectivity interaction (KinomeScan (DiscoverX)) EUB0001079a EPHA5. Particulars: at 1 µM.
For assay [8], the target named is Serine/threonine-protein kinase WNK2 (Homo sapiens) (UniProt Q9Y3S1). The assay is described as follows: Selectivity interaction (KinomeScan (DiscoverX)) EUB0001079a WNK2. Conditions: at 1 µM.

Sequence of Ephrin type-A receptor 5 (Homo sapiens) (P54756 whole entry): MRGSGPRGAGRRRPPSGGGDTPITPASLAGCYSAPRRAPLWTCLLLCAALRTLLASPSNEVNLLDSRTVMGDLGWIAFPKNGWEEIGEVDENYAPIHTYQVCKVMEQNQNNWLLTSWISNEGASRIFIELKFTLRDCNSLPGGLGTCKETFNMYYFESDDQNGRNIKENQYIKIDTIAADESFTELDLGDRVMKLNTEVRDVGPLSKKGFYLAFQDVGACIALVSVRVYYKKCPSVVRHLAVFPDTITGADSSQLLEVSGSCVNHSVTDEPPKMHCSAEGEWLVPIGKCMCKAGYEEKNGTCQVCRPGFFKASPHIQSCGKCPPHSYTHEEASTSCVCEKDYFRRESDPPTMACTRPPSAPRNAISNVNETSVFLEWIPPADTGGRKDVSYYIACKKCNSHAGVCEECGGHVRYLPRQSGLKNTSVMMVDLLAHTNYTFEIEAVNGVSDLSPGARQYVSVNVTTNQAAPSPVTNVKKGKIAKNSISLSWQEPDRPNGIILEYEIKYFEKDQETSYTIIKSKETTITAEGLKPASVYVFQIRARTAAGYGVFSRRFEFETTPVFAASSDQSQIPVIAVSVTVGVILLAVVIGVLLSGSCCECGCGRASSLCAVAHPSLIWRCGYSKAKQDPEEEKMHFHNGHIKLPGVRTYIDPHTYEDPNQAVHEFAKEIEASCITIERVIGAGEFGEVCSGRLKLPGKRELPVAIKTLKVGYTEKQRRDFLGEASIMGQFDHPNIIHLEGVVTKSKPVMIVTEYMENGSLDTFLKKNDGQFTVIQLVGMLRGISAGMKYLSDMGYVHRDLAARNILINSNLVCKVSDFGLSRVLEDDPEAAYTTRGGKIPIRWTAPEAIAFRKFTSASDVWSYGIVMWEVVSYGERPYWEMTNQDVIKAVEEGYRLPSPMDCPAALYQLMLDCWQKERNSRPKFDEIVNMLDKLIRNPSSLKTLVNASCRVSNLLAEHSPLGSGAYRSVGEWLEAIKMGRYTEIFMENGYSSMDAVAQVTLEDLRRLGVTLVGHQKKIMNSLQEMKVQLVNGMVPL
Sequence of PAS domain-containing serine/threonine-protein kinase (Homo sapiens) (Q96RG2 whole entry, the tested form may be a part): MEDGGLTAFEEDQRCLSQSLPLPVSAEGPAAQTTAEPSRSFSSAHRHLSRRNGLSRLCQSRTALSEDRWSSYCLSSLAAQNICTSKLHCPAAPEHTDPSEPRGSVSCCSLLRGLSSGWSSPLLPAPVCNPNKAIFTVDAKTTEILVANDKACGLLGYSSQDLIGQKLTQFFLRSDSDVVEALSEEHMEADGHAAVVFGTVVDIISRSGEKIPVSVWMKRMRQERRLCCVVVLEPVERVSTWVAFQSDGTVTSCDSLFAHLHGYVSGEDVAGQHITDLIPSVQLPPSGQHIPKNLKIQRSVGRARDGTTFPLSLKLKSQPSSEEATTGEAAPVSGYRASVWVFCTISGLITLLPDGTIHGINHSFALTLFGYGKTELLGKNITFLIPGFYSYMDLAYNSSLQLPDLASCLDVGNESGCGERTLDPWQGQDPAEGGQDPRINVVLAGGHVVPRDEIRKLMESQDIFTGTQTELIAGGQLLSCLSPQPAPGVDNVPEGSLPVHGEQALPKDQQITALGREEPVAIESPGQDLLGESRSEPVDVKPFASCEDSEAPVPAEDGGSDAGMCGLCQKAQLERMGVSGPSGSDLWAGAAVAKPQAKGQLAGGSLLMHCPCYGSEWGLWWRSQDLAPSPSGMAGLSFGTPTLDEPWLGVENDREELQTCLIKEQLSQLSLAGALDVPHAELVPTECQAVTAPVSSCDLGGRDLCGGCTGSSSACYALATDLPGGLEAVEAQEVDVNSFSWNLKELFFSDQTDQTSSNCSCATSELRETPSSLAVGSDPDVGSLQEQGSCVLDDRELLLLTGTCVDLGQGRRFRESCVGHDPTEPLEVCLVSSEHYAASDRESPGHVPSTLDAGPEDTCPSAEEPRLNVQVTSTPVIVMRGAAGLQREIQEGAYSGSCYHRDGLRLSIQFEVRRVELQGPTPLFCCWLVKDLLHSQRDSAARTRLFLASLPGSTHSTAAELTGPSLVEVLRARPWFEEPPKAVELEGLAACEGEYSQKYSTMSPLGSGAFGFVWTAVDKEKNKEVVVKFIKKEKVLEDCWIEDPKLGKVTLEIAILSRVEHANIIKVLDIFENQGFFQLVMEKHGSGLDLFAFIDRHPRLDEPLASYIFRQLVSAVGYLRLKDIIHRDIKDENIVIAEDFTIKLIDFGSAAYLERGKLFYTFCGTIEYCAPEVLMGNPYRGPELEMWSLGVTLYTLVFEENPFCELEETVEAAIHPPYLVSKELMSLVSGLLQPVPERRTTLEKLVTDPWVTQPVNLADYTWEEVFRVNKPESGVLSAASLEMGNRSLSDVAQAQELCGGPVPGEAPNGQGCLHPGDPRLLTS
Sequence of Ribosomal protein S6 kinase alpha-3 (P51812 whole entry, canonical isoform): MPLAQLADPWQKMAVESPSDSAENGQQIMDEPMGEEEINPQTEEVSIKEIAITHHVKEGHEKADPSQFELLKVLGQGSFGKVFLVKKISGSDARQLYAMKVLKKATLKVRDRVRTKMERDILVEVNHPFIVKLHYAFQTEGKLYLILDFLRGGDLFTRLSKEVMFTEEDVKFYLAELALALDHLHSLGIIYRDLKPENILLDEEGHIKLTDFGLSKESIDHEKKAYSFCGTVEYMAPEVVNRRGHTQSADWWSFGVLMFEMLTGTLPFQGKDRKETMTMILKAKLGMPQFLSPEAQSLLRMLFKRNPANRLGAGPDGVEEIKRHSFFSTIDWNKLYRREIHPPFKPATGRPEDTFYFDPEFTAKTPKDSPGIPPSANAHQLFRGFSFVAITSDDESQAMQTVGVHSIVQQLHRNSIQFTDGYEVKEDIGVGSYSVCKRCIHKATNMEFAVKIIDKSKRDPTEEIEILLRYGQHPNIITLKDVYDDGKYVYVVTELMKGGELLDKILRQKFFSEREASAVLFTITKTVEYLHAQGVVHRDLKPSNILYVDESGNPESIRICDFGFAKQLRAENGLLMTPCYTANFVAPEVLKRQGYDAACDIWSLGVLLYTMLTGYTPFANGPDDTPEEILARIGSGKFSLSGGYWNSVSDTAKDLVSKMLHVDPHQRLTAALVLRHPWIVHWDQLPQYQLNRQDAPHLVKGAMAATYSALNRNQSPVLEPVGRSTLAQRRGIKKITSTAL
Sequence of Mitogen-activated protein kinase 6 (Homo sapiens) (Q16659 whole entry, the tested form may be a part): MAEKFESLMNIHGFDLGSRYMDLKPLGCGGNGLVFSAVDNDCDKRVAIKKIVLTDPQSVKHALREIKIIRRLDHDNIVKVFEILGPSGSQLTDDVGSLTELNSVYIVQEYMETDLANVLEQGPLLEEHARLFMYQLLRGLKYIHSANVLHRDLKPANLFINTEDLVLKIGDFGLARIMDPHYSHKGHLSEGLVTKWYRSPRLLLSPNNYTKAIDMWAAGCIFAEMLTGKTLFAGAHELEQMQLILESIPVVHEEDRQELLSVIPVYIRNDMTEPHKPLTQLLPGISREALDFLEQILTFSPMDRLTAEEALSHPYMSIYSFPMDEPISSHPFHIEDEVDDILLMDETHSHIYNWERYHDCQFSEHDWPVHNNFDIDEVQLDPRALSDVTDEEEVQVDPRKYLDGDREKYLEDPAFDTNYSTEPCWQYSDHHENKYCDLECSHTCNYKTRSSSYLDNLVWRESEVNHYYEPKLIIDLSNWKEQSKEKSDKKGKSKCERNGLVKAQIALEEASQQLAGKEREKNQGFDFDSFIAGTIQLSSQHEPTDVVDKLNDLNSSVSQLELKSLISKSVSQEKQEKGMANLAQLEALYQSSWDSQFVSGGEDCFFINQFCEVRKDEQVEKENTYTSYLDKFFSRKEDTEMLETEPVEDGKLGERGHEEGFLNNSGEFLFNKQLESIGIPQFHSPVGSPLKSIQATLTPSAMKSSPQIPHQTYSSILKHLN
Sequence of Aurora kinase B (Q96GD4 whole entry): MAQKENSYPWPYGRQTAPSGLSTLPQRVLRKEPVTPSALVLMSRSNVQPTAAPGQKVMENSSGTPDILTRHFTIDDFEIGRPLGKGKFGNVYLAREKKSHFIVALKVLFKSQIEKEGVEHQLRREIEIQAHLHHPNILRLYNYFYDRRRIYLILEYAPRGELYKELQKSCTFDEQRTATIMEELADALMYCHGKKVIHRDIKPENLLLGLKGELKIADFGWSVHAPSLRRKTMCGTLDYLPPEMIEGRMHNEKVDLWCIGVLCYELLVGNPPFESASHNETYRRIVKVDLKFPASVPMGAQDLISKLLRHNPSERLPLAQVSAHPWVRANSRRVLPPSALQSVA

In the case of `COCC(=O)NC/C=C/c1ccc2ncnc(Nc3ccc(Oc4ccc(C)nc4)c(C)c3)c2c1` [CP-724714], the % of control in assay [1] and in assay [2] was 100% in each case.

In the case of `Cc1cnc(Nc2ccc(F)cc2Cl)nc1-c1c[nH]c(C(=O)N[C@H](CO)c2cccc(Cl)c2)c1`, in [3], the % of inhibition is 19%.

In the case of `CC[C@@H]1[C@H](F)C(=O)N[C@@H]1COc1nccc2cc(C(N)=O)c(OC)cc12` [ZIMLOVISERTIB], the % of inhibition at Aurora kinase B amounted to 11.3%; in assay [4], 8%.

In the case of `O[C@H]1CC[C@H](Nc2ncc3nc(Nc4c(F)cc(F)cc4F)n([C@H]4CCOC4)c3n2)CC1`, the % of control in assay [5] is 96%.

`CC(C)(O)[C@H](F)CN1Cc2cc(NC(=O)c3cnn4cccnc34)c(N3CCOCC3)cc2C1=O`: the dTM in assay [6] is -1 K.

For `Nc1cnc(N2CCc3cc(S(=O)(=O)Nc4c(F)cc(Cl)cc4F)cc(N4CCCC4=O)c32)nc1` [TP-020n], the % of control in [7] and in assay [8] was 100% in each case.
